ChEMBL document CHEMBL1201862, “PubChem BioAssay data set” (2004)
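Grown in 96-well plates, cells were treated for 48 hours with each compound at five concentrations. Insufficient inhibition: endpoint recorded as highest concentration tested. The concentration for 50% growth inhibition is given as GI50.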 Active and inactive are the calls of the source. Cut-off read from the data, not from the text of the source: active = GI50 up to about 1.1 µM and inactive = higher.

Legend:
Assay in all cases: NCI tumour cell line growth inhibition, 48 h
786-0 = tested on: 786-0
A498 = tested on: A498
A549 = tested on: A549
ACHN = tested on: ACHN
CAKI-1 = tested on: CAKI-1
CCRF-CEM = tested on: CCRF-CEM
COLO 205 = tested on: COLO 205
DU-145 = tested on: DU-145
EKVX = tested on: EKVX
HCC 2998 = tested on: HCC 2998
HCT-116 = tested on: HCT-116
HL-60 = tested on: HL-60
HOP-62 = tested on: HOP-62
HOP-92 = tested on: HOP-92
HT-29 = tested on: HT-29
Hs-578T = tested on: Hs-578T
IGROV-1 = tested on: IGROV-1
K562 = tested on: K562
KM12 = tested on: KM12
M14 = tested on: M14
MCF7 = tested on: MCF7
MDA-N = tested on: MDA-N
MOLT-4 = tested on: MOLT-4
Malme-3M = tested on: Malme-3M
NCI-H23 = tested on: NCI-H23
NCI-H460 = tested on: NCI-H460
NCI/ADR-RES = tested on: NCI/ADR-RES
OVCAR-4 = tested on: OVCAR-4
OVCAR-5 = tested on: OVCAR-5
OVCAR-8 = tested on: OVCAR-8
PC-3 = tested on: PC-3
RPMI-8226 = tested on: RPMI-8226
RXF 393 = tested on: RXF 393
SF-268 = tested on: SF-268
SF-295 = tested on: SF-295
SK-MEL-28 = tested on: SK-MEL-28
SK-MEL-5 = tested on: SK-MEL-5
SK-OV-3 = tested on: SK-OV-3
SNB-19 = tested on: SNB-19
SNB-75 = tested on: SNB-75
SR = tested on: SR
SW-620 = tested on: SW-620
T47D = tested on: T47D
TK-10 = tested on: TK-10
U-251 = tested on: U-251
UACC-257 = tested on: UACC-257
UO-31 = tested on: UO-31
HCT-15 = tested on: HCT-15
LOX IMVI = tested on: LOX IMVI
MDA-MB-231 = tested on: MDA-MB-231
MDA-MB-435 = tested on: MDA-MB-435
NCI-H226 = tested on: NCI-H226
NCI-H522 = tested on: NCI-H522
SF-539 = tested on: SF-539
SK-MEL-2 = tested on: SK-MEL-2
SN12C = tested on: SN12C
UACC-62 = tested on: UACC-62
OVCAR-3 = tested on: OVCAR-3

Q: How did the GI50 (786-0) turn out when Cc1cc2c(=O)c3ccccc3oc2c(C#N)c1C was run?
A: > 100 µM (inactive)

Q: What about the GI50 (A498) of the same compound?
A: > 100 µM (inactive)

Q: What about the GI50 (A549) of the same compound?
A: > 100 µM (inactive)

Q: What about the GI50 (ACHN) of the same compound?
A: > 100 µM (inactive)

Q: And the GI50 (CAKI-1)?
A: > 100 µM (inactive)

Q: What about the GI50 (CCRF-CEM) of the same compound?
A: > 100 µM (inactive)

Q: And the GI50 (COLO 205)?
A: > 100 µM (inactive)

Q: What about the GI50 (DU-145) of the same compound?
A: > 100 µM (inactive)

Q: And the GI50 (EKVX)?
A: > 100 µM (inactive)

Q: What about the GI50 (HCC 2998) of the same compound?
A: > 100 µM (inactive)

Q: And the GI50 (HCT-116)?
A: > 100 µM (inactive)

Q: And the GI50 (HL-60)?
A: > 100 µM (inactive)

Q: And the GI50 (HOP-62)?
A: > 100 µM (inactive)

Q: And the GI50 (HOP-92)?
A: > 100 µM (inactive)

Q: And the GI50 (HT-29)?
A: 43.6 µM (inactive)

Q: And the GI50 (Hs-578T)?
A: > 100 µM (inactive)

Q: What about the GI50 (IGROV-1) of the same compound?
A: > 100 µM (inactive)

Q: What about the GI50 (K562) of the same compound?
A: > 100 µM (inactive)

Q: What about the GI50 (KM12) of the same compound?
A: > 100 µM (inactive)

Q: And the GI50 (M14)?
A: > 100 µM (inactive)

Q: And the GI50 (MCF7)?
A: > 100 µM (inactive)

Q: What about the GI50 (MDA-N) of the same compound?
A: > 100 µM (inactive)

Q: What about the GI50 (MOLT-4) of the same compound?
A: > 100 µM (inactive)

Q: What about the GI50 (Malme-3M) of the same compound?
A: > 100 µM (inactive)

Q: What about the GI50 (NCI-H23) of the same compound?
A: > 100 µM (inactive)

Q: What about the GI50 (NCI-H460) of the same compound?
A: > 100 µM (inactive)

Q: What about the GI50 (NCI/ADR-RES) of the same compound?
A: > 100 µM (inactive)

Q: What about the GI50 (OVCAR-4) of the same compound?
A: > 100 µM (inactive)

Q: And the GI50 (OVCAR-5)?
A: > 100 µM (inactive)

Q: What about the GI50 (OVCAR-8) of the same compound?
A: > 100 µM (inactive)

Q: And the GI50 (PC-3)?
A: 40.3 µM (inactive)

Q: And the GI50 (RPMI-8226)?
A: > 100 µM (inactive)

Q: And the GI50 (RXF 393)?
A: > 100 µM (inactive)

Q: And the GI50 (SF-268)?
A: > 100 µM (inactive)

Q: What about the GI50 (SF-295) of the same compound?
A: > 100 µM (inactive)

Q: What about the GI50 (SK-MEL-28) of the same compound?
A: > 100 µM (inactive)

Q: What about the GI50 (SK-MEL-5) of the same compound?
A: > 100 µM (inactive)

Q: What about the GI50 (SK-OV-3) of the same compound?
A: > 100 µM (inactive)

Q: What about the GI50 (SNB-19) of the same compound?
A: > 100 µM (inactive)

Q: And the GI50 (SNB-75)?
A: > 100 µM (inactive)

Q: And the GI50 (SR)?
A: > 100 µM (inactive)

Q: And the GI50 (SW-620)?
A: > 100 µM (inactive)

Q: What about the GI50 (T47D) of the same compound?
A: > 100 µM (inactive)

Q: And the GI50 (TK-10)?
A: > 100 µM (inactive)

Q: And the GI50 (U-251)?
A: > 100 µM (inactive)

Q: What about the GI50 (UACC-257) of the same compound?
A: > 100 µM (inactive)

Q: What about the GI50 (UO-31) of the same compound?
A: > 100 µM (inactive)

Q: Which results are given for Cc1ccc(S(=O)(=O)N2C[C@](O)(c3ccccc3)[C@H]2C)cc1?
A: GI50 (786-0): > 100 µM (inactive); GI50 (A498): > 100 µM (inactive); GI50 (A549): > 100 µM (inactive); GI50 (ACHN): > 100 µM (inactive); GI50 (CAKI-1): > 100 µM (inactive); GI50 (CCRF-CEM): 26.4 µM (inactive); GI50 (COLO 205): > 100 µM (inactive); GI50 (DU-145): > 100 µM (inactive); GI50 (EKVX): > 100 µM (inactive); GI50 (HCT-116): > 100 µM (inactive); GI50 (HCT-15): > 100 µM; GI50 (HL-60): 72.8 µM (inactive); GI50 (HOP-62): > 100 µM (inactive); GI50 (HOP-92): > 100 µM (inactive); GI50 (HT-29): > 100 µM (inactive); GI50 (Hs-578T): > 100 µM (inactive); GI50 (IGROV-1): > 100 µM (inactive); GI50 (KM12): > 100 µM (inactive); GI50 (LOX IMVI): > 100 µM (inactive); GI50 (M14): > 100 µM (inactive); GI50 (MCF7): > 100 µM (inactive); GI50 (MDA-MB-231): > 100 µM (inactive); GI50 (MDA-MB-435): > 100 µM (inactive); GI50 (MDA-N): > 100 µM (inactive); GI50 (MOLT-4): 44.2 µM (inactive); GI50 (Malme-3M): > 100 µM (inactive); GI50 (NCI-H226): > 100 µM (inactive); GI50 (NCI-H23): > 100 µM (inactive); GI50 (NCI-H460): > 100 µM (inactive); GI50 (NCI-H522): > 100 µM (inactive); GI50 (NCI/ADR-RES): > 100 µM (inactive); GI50 (OVCAR-4): > 100 µM (inactive); GI50 (OVCAR-5): > 100 µM (inactive); GI50 (OVCAR-8): > 100 µM (inactive); GI50 (PC-3): > 100 µM (inactive); GI50 (RXF 393): > 100 µM (inactive); GI50 (SF-268): > 100 µM (inactive); GI50 (SF-295): > 100 µM (inactive); GI50 (SF-539): > 100 µM (inactive); GI50 (SK-MEL-28): > 100 µM (inactive); GI50 (SK-MEL-2): > 100 µM (inactive); GI50 (SK-MEL-5): 51.1 µM (inactive); GI50 (SK-OV-3): > 100 µM (inactive); GI50 (SN12C): > 100 µM (inactive); GI50 (SNB-19): > 100 µM (inactive); GI50 (SNB-75): 89.3 µM (inactive); GI50 (SW-620): > 100 µM (inactive); GI50 (T47D): 47.9 µM (inactive); GI50 (TK-10): > 100 µM (inactive); GI50 (U-251): > 100 µM (inactive); GI50 (UACC-257): > 100 µM (inactive); GI50 (UACC-62): > 100 µM (inactive); GI50 (UO-31): > 100 µM (inactive)

Q: What does the source list for Cc1ccc(S(=O)(=O)NC2C(=O)c3ccccc3C(=O)C2n2ccnc2)cc1 (stereo unspecified)?
A: GI50 (786-0): 17.4 µM (inactive); GI50 (A549): > 100 µM (inactive); GI50 (ACHN): > 100 µM (inactive); GI50 (CAKI-1): > 100 µM (inactive); GI50 (CCRF-CEM): 20 µM (inactive); GI50 (COLO 205): 71 µM (inactive); GI50 (DU-145): 17 µM (inactive); GI50 (EKVX): > 100 µM (inactive); GI50 (HCC 2998): > 100 µM (inactive); GI50 (HCT-116): 20.4 µM (inactive); GI50 (HCT-15): > 100 µM; GI50 (HL-60): 18.6 µM (inactive); GI50 (HOP-62): > 100 µM (inactive); GI50 (HOP-92): 35.8 µM (inactive); GI50 (HT-29): > 100 µM (inactive); GI50 (Hs-578T): > 100 µM (inactive); GI50 (IGROV-1): > 100 µM (inactive); GI50 (K562): > 100 µM (inactive); GI50 (KM12): > 100 µM (inactive); GI50 (LOX IMVI): 12.2 µM (inactive); GI50 (M14): > 100 µM (inactive); GI50 (MCF7): > 100 µM (inactive); GI50 (MDA-MB-231): 16 µM (inactive); GI50 (MDA-MB-435): 17.9 µM (inactive); GI50 (MDA-N): 15.4 µM (inactive); GI50 (MOLT-4): 25.7 µM (inactive); GI50 (NCI-H226): > 100 µM (inactive); GI50 (NCI-H23): 25.4 µM (inactive); GI50 (NCI-H460): > 100 µM (inactive); GI50 (NCI-H522): < 0.01 µM (active); GI50 (NCI/ADR-RES): > 100 µM (inactive); GI50 (OVCAR-3): 42.5 µM (inactive); GI50 (OVCAR-4): 30.9 µM (inactive); GI50 (OVCAR-5): > 100 µM (inactive); GI50 (OVCAR-8): > 100 µM (inactive); GI50 (PC-3): > 100 µM (inactive); GI50 (RPMI-8226): > 100 µM (inactive); GI50 (RXF 393): 31.2 µM (inactive); GI50 (SF-268): > 100 µM (inactive); GI50 (SF-295): > 100 µM (inactive); GI50 (SF-539): > 100 µM (inactive); GI50 (SK-MEL-28): > 100 µM (inactive); GI50 (SK-MEL-2): > 100 µM (inactive); GI50 (SK-MEL-5): 48.5 µM (inactive); GI50 (SK-OV-3): > 100 µM (inactive); GI50 (SN12C): 15 µM (inactive); GI50 (SNB-19): > 100 µM (inactive); GI50 (SNB-75): > 100 µM (inactive); GI50 (SR): 67.8 µM (inactive); GI50 (SW-620): > 100 µM (inactive); GI50 (T47D): 17.5 µM (inactive); GI50 (TK-10): > 100 µM (inactive); GI50 (U-251): > 100 µM (inactive); GI50 (UACC-257): > 100 µM (inactive); GI50 (UACC-62): 33.1 µM (inactive); GI50 (UO-31): > 100 µM (inactive)
